Assay results published in patent publication US10357546B2, “Acceleration of diabetic wound healing” (University of Notre Dame du Lac, priority 2014, dated 2019).
“Also recorded” adds a separate entry of the source. Where a name gives a salt, the structure may show the parent alone. Read-outs that look alike come from different tables or passages of the source.

What was measured:
MMP-8 = MMP-8 (Homo sapiens (Human), UniProt P22894); assay: Enzyme inhibition, MMP-8 catalytic domain; assay type: biochemical
Chain of MMP-8 (P22894 100-262): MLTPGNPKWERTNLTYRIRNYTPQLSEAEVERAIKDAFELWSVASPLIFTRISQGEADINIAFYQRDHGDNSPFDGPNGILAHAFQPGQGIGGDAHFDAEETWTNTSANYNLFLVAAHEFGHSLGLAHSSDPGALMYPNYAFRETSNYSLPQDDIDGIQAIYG
Method: (§5) Inhibitor stock solutions (10 mM) were prepared freshly in DMSO before enzyme inhibition assays. […] Enzyme inhibition studies were carried out using a Cary Eclipse fluorescence spectrophotometer (Varian, Walnut Creek, Calif., USA).

MMP-9 = MMP-9 (Homo sapiens (Human), UniProt P14780); assay: Enzyme inhibition, MMP-9 catalytic domain; assay type: biochemical; details: for residence time: calculated as 1/koff
Chain of MMP-9 (P14780 107-444): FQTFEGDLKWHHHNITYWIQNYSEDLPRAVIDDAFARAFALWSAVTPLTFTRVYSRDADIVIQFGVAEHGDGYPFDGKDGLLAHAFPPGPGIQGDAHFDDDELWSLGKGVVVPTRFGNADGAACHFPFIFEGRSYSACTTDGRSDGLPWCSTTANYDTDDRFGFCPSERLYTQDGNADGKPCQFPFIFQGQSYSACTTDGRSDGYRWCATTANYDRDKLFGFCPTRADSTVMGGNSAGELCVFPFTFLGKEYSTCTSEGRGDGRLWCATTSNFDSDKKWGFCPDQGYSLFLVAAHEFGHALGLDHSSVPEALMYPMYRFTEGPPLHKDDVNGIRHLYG
Method: as §5

MMP-1 = MMP-1 (Homo sapiens (Human), UniProt P03956); assay: Enzyme inhibition, MMP-1 catalytic domain; assay type: biochemical
Chain of MMP-1 (P03956 100-269): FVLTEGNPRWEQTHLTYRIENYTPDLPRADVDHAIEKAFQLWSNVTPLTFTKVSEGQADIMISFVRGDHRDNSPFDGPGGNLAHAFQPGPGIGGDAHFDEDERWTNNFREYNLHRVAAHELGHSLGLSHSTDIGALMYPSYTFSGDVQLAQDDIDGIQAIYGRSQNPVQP
From the text: (§1) Human recombinant active MMP-2 and MMP-7, and the catalytic domains of MMP-3 and MMP-14/MT1-MMP were purchased from EMD Chemicals, Inc. (San Diego, Calif., USA); human recombinant catalytic domains of MMP-1, MMP-8, and MMP-9 were purchased from Enzo Life Sciences, Inc. (Farmingdale, N.Y., USA); human recombinant active ADAM9 and ADAM10 were purchased from R&D Systems (Minneapolis, Minn., USA). Fluorogenic substrates MOCAc-Pro-Leu-Gly-Leu-A2pr(Dnp)-Ala-Arg-NH2 (for MMP-2, MMP-7, MMP-9 and MMP-14) and MOCAc-Arg-Pro-Lys-Pro-Val-Glu-Nva-Trp-Arg-Lys(Dnp)-NH2 (for MMP-3) were purchased from Peptides International (Louisville, Ky., USA); Mca-KPLGL-Dpa-AR-NH2 (for MMP-1, MMP-8 and ADAM10) and Mca-PLAQAV-Dpa-RSSSR-NH2 (for ADAM9) were purchased from R&D Systems (Minneapolis, Minn., USA). The Km values for MMP-2, MMP-9 and MMP-14 were the same as previously reported by Gooyit et al. ((2013) J. Med. Chem. 56(20):8139-8150). Inhibitor stock solutions (10 mM) were prepared freshly in DMSO before enzyme inhibition assays. We followed the same methodology for enzyme inhibition studies as reported before by Page-McCaw et al. ((2007) Nat Rev Mol Cell Biol 8(3):221-233). Enzyme inhibition studies were carried out using a Cary Eclipse fluorescence spectrophotometer (Varian, Walnut Creek, Calif., USA).

MMP-2 = MMP-2 (Homo sapiens (Human), UniProt P08253); assay: Enzyme inhibition, MMP-2; assay type: biochemical
Chain of MMP-2 (P08253 110-660): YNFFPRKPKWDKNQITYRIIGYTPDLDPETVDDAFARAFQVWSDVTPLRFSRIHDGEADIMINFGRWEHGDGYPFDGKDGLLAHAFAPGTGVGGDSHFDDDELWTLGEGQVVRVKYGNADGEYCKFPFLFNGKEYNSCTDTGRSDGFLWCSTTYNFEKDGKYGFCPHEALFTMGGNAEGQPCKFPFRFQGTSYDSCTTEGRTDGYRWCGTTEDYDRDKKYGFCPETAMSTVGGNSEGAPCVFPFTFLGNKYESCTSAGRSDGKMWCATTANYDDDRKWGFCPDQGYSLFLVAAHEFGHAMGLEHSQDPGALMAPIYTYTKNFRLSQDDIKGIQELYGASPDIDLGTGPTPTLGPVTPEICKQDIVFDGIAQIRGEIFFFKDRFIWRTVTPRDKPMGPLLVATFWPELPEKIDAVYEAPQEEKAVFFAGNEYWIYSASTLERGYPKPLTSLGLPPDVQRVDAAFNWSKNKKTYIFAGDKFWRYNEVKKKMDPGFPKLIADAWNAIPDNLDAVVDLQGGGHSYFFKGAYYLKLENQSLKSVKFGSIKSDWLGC
From the text: as §1

MMP-3 = MMP-3 (Homo sapiens (Human), UniProt P08254); assay: Enzyme inhibition, MMP-3 catalytic domain; assay type: biochemical
Chain of MMP-3 (P08254 100-272): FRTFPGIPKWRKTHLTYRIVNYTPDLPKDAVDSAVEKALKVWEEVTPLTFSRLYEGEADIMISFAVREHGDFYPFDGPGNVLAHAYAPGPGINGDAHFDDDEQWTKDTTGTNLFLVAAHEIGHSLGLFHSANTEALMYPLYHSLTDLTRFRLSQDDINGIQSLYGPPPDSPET
From the text: as §1

MMP-7 = MMP-7 (Homo sapiens (Human), UniProt P09237); assay: Enzyme inhibition, MMP-7; assay type: biochemical
Chain of MMP-7 (P09237 95-267): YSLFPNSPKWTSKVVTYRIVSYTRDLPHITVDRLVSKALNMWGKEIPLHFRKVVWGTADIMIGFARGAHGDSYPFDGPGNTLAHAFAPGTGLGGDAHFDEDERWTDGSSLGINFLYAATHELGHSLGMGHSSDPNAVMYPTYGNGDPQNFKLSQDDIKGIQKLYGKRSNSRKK
From the text: as §1

MMP-14 = MMP-14 (Homo sapiens (Human), UniProt P50281); assay: Enzyme inhibition, MMP-14 catalytic domain; assay type: biochemical
From the text: as §1

ADAM9 = ADAM9 (Homo sapiens (Human), UniProt Q13443); assay: Enzyme inhibition, ADAM9; assay type: biochemical
Chain of ADAM9 (Q13443 whole entry, looked up, change not shown): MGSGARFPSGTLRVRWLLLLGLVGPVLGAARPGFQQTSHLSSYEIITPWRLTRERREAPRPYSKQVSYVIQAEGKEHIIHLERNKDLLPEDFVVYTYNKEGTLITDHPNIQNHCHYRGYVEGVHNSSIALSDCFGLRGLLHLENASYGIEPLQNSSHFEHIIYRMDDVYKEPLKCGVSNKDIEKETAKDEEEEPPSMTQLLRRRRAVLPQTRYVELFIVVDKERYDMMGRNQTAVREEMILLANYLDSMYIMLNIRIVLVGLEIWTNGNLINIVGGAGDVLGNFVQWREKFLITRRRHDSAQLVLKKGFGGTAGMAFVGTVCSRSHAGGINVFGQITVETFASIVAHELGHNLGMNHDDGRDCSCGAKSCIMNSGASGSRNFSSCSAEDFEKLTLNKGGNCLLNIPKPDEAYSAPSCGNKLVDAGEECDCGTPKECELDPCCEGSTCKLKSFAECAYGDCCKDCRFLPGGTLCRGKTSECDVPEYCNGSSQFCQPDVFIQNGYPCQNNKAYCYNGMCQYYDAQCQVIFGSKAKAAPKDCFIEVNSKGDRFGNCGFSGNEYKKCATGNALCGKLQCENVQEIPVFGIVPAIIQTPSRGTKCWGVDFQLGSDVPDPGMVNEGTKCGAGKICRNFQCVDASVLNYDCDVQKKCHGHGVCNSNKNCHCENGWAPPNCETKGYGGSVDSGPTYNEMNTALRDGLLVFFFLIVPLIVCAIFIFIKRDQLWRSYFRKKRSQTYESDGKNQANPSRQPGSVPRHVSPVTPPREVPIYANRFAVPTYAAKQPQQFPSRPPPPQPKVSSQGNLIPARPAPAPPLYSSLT
From the text: as §1

ADAM10 = ADAM10 (Homo sapiens (Human), UniProt O14672); assay: Enzyme inhibition, ADAM10; assay type: biochemical
Chain of ADAM10 (O14672 214-672): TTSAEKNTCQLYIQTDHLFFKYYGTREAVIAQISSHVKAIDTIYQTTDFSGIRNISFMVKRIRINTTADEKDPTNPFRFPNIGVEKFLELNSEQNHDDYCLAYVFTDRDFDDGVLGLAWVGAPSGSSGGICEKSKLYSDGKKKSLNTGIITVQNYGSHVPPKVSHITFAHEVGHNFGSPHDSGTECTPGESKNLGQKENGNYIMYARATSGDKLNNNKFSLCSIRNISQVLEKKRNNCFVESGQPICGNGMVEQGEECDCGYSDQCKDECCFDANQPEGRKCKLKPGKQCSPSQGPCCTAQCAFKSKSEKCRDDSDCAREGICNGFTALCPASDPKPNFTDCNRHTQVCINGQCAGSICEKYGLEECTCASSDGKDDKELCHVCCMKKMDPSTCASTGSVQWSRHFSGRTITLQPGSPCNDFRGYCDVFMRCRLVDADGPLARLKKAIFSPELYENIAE
From the text: as §1

[1] = Stability in the buffers of the kinetic assays; assay type: physicochemical
[2] = tested on: diabetic wounds of db/db mice; assay: Excisional diabetic wound model, wound closure; assay type: in vivo, mouse
Method: Female diabetic db/db mice (BKS.Cg-Dock7^m+/+Lepr^db/J, 8-weeks old) were purchased from the Jackson Laboratory (Bar Harbor, Me., USA) and fed 5001 Laboratory Rodent Diet (LabDiet, St. Louis, Mo., USA) and water ad libitum. Mice were housed in polycarbonate shoebox cages with hardwood bedding at 72±2° F. and 12 h light/12 h dark.
The dorsal area of the mice was shaved, and a single excisional 8-mm diameter wound (50 mm^2) was made on the dorsal thorax with a biopsy punch (Miltex, Plainsboro, N.J., USA) while the animals were under isofluorane anesthesia. Wounds were covered with Tegaderm™ dressing (3M Company, St. Paul, Minn., USA). Topical treatment was started the next day.
Mice were anesthetized with isofluorane, and wounds were photographed with an Olympus SP-800 UZ camera mounted on a tripod at a fixed distance; a ruler was included in the digital photo. Wound areas were calculated using NIH ImageJ software (version 1.48) and expressed as percent change in wound area relative to day 0.
(§2) Wound measurements were taken on days 0, 7, 10, and 14. Animals were sacrificed on day 14 and wounds analyzed by H&E staining, TUNEL, and in-situ zymography.
Female diabetic db/db (BKS.Cg-Dock7m+/+Leprdb/J, 8-weeks old, 38±3 g, n=24) were used for this study. Wounds were inflicted as described and the following day the wounds were treated topically with MMP-8 (50 μL of 20 μg/mL MMP-8 in reaction buffer) or vehicle (50 μL reaction buffer) once a day for 14 days. The reaction buffer consisted of 50 mM Tris (pH 7.5), 10 mM CaCl2, 150 mM NaCl, and 0.05% (w/v) Brij-35 (polyoxyethyleneglycoli dodecyl ether). Digital photographs of the wounds were taken on days 0, 7, 10, and 14 while animals were under isoflurane anesthesia. On days 7 and 14, 12 mice (n=6 per group) were sacrificed. The wounds were excised, embedded in OCT compound, and cryosectioned for histological evaluation and in-situ zymography.
(§3) Mice were sacrificed on days 7, 10, and 14, and the excised wounds were embedded in OCT compound and cryosectioned for histological evaluation and in situ zymography.

[3] = tested on: re-epithelialization of diabetic wounds; assay: H&E staining, re-epithelialization of diabetic wounds; assay type: in vivo, mouse; details: db/db mice, ND-336 0.1 mg/wound/day, day 14
Method: as §2
Female diabetic db/db (BKS.Cg-Dock7m+/+Leprdb/J, 8-weeks old, 38±3 g, n=24) were used for this study. Wounds were inflicted as described and the following day the wounds were treated topically with MMP-8 (50 μL of 20 μg/mL MMP-8 in reaction buffer) or vehicle (50 μL reaction buffer) once a day for 14 days. The reaction buffer consisted of 50 mM Tris (pH 7.5), 10 mM CaCl2, 150 mM NaCl, and 0.05% (w/v) Brij-35 (polyoxyethyleneglycoli dodecyl ether). […]
Wounds were embedded in optimal cutting temperature (OCT, Tissue-Tek, Sakura Finetek, Torrance, Calif., USA) compound and cryosectioned at 12-μm thickness for hematoxylin-eosin (H&E) and at 8-μm thickness for in-situ zymography. Re-epithelialization was assessed on a fluorescent microscope (Nikon Eclipse 90i, Nikon Instruments, Inc., Melville, N.Y., USA). Apoptotic cells in wound sections were assessed using a modified terminal deoxynucleotidyl transferase-mediated dUTP-nick-end labeling (TUNEL) assay kit, following the manufacturer's instructions (Trevigen, Inc., Gaithersburg, Md., USA). […] After fixation in 4% paraformaldehyde in PBS, cells were counterstained with DAPI and the images were visualized by fluorescence microscopy. […]

[4] = tested on: apoptotic cells in diabetic wounds; assay: TUNEL apoptosis detection in diabetic wounds; assay type: in vivo, mouse; details: db/db mice, ND-336 0.1 mg/wound/day, day 14
From the text: as §2, §3
Wounds were embedded in optimal cutting temperature (OCT, Tissue-Tek, Sakura Finetek, Torrance, Calif., USA) compound and cryosectioned at 12-μm thickness for hematoxylin-eosin (H&E) and at 8-μm thickness for in-situ zymography. Re-epithelialization was assessed on a fluorescent microscope (Nikon Eclipse 90i, Nikon Instruments, Inc., Melville, N.Y., USA). Apoptotic cells in wound sections were assessed using a modified terminal deoxynucleotidyl transferase-mediated dUTP-nick-end labeling (TUNEL) assay kit, following the manufacturer's instructions (Trevigen, Inc., Gaithersburg, Md., USA). For in-situ zymography, unfixed cryostat sections of wound tissues were incubated in reaction buffer (50 mM TBS pH 7.6) containing DQ-gelatin or DQ-collagen (Molecular Probes, Inc., Eugene, Oreg., USA) at 37° C. for 6 h. After fixation in 4% paraformaldehyde in PBS, cells were counterstained with DAPI and the images were visualized by fluorescence microscopy. […]

[5] = tested on: MMP-9 activity (gelatinase) in diabetic wounds; assay: In-situ zymography with DQ-gelatin; assay type: in vivo, mouse; details: db/db mice
From the text: (§6) In-situ zymography detects MMP activity in vivo using the fluorogenic substrates: DQ-gelatin for gelatinase (MMP-2 and MMP-9) activity and DQ-collagen for collagenase (MMP-1, MMP-8, and MMP-13) activity.
(§7) Wounds were embedded in optimal cutting temperature (OCT, Tissue-Tek, Sakura Finetek, Torrance, Calif., USA) compound and cryosectioned at 12-μm thickness for hematoxylin-eosin (H&E) and at 8-μm thickness for in-situ zymography. […] For in-situ zymography, unfixed cryostat sections of wound tissues were incubated in reaction buffer (50 mM TBS pH 7.6) containing DQ-gelatin or DQ-collagen (Molecular Probes, Inc., Eugene, Oreg., USA) at 37° C. for 6 h. After fixation in 4% paraformaldehyde in PBS, cells were counterstained with DAPI and the images were visualized by fluorescence microscopy. […] The images for in-situ zymography and vascular density were obtained by confocal microscopy.

[6] = tested on: MMP-8 activity (collagenase) in diabetic wounds; assay: In-situ zymography with DQ-collagen; assay type: in vivo, mouse; details: db/db mice
From the text: as §6, §7

IL-6 = IL-6 in wound tissue by ELISA; assay type: in vivo, mouse; details: db/db mice, versus vehicle
Method: as §3
(§4) Wound tissues (n=3 mice/group) were harvested and immediately frozen in liquid nitrogen on days 1, 3, and 14. The extracted tissues were homogenized in cold lysis buffer containing free-EDTA protease inhibitor cocktail (Pierce, Rockford, Ill., USA). The lysates were analyzed for protein concentration by the Bradford protein assay (Bio-Rad, Hercules, Calif., USA). The levels of IL-6, TGF-β1 and VEGF in the lysates were determined by ELISA, following the manufacturer's protocol (Abcam, Cambridge, Mass., USA). The cytokine levels for each mouse sample were expressed in picograms/mg tissue.

TGF-β1 = TGF-β1 in wound tissue by ELISA; assay type: in vivo, mouse; details: db/db mice, versus vehicle
Method: as §3, §4

VEGF = VEGF in wound tissue by ELISA; assay type: in vivo, mouse; details: db/db mice
Method: as §3, §4

CD31 = assay: Angiogenesis by anti-CD31 staining; assay type: in vivo, mouse; details: db/db mice wounds
Method: Wounds were embedded in optimal cutting temperature (OCT, Tissue-Tek, Sakura Finetek, Torrance, Calif., USA) compound and cryosectioned at 12-μm thickness for hematoxylin-eosin (H&E) and at 8-μm thickness for in-situ zymography. Re-epithelialization was assessed on a fluorescent microscope (Nikon Eclipse 90i, Nikon Instruments, Inc., Melville, N.Y., USA). Apoptotic cells in wound sections were assessed using a modified terminal deoxynucleotidyl transferase-mediated dUTP-nick-end labeling (TUNEL) assay kit, following the manufacturer's instructions (Trevigen, Inc., Gaithersburg, Md., USA). For in-situ zymography, unfixed cryostat sections of wound tissues were incubated in reaction buffer (50 mM TBS pH 7.6) containing DQ-gelatin or DQ-collagen (Molecular Probes, Inc., Eugene, Oreg., USA) at 37° C. for 6 h. After fixation in 4% paraformaldehyde in PBS, cells were counterstained with DAPI and the images were visualized by fluorescence microscopy. Immunofluorescent detection of vascular density was performed by staining the tissues with Alexa Fluor 488 anti-mouse CD31 (BioLegend, San Diego, Calif., USA), followed by staining the nuclei with DAPI. The images for in-situ zymography and vascular density were obtained by confocal microscopy.

[7] = topical ND-336 0.1 mg/wound/day
[8] = combination study: ND-336 0.05 mg/wound/day, MMP-8 1 μg/wound/day

For CS(=O)(=O)Oc1ccc(Oc2ccc(S(=O)(=O)CC3CS3)cc2)cc1 (centres unmarked) [JNMS-38], the “Inhibition type, MMP-8” value (MMP-8) was “linear competitive” and the “Inhibition type, MMP-9” value (MMP-9) was “slow-binding”.

In the case of NCc1ccc(Oc2ccc(S(=O)(=O)CC3CS3)cc2)cc1 (centres unmarked) [ND-336, (4-(4-((Thiiran-2-ylmethyl)sulfonyl)phenoxy)phenyl)methanamine HCl salt], the “inhibition of MMP-1 (in words)” value (MMP-1) is reported as “marginal to no inhibition”, the inhibition at 100 µM (MMP-1; @ 100 μM, catalytic domain) is reported as 4% and the “Inhibition type, MMP-2” value (MMP-2) is reported as “slow-binding”. For the same compound, the “inhibition of MMP-3 (in words)” value (MMP-3) was “marginal to no inhibition”, the inhibition at 100 µM (MMP-3; @ 100 μM, catalytic domain) was 23% and the “inhibition of MMP-7 (in words)” value (MMP-7) was “marginal to no inhibition”. The inhibition at 100 µM (MMP-7; @ 100 μM) was 1%, the “Inhibition type, MMP-8” value (MMP-8; HCl salt) was “linear noncompetitive; also recorded: linear non-competitive” and the “Inhibition type, MMP-9” value (MMP-9) was “slow-binding”. For the same compound, the “lower Ki for MMP-9 than for MMP-8” value (MMP-9; MMP-9 versus MMP-8) was 50 fold, the “Inhibition type, MMP-14” value (MMP-14) was “slow-binding” and the inhibition at 100 µM (ADAM9; @ 100 μM) was 31%. The “inhibition of ADAM9 (in words)” value (ADAM9; printed as ADAMS) was “marginal to no inhibition”, the “inhibition of ADAM10 (in words)” value (ADAM10) was “marginal to no inhibition” and the inhibition at 100 µM (ADAM10; @ 100 μM) was 14%. For the same compound, the “stability in the buffers used in the kinetic assays” value [1] was “stable”, the “wound healing in dose-response study” value ([2]; 0.05 mg/wound/day, day 14, versus vehicle and 0.025 and 0.01 mg/wound/day) was “significant better healing” and the “diabetic wound healing (in words)” value [2, 7] was “accelerated diabetic wound healing”. For the same compound, the “wound healing faster than vehicle” value [2, 7] was “about 2 fold”, the “re-epithelialization (H&E)” value [3] was “almost complete re-epithelialization” and the “apoptosis (TUNEL)” value [4] was “significantly decreased”. For the same compound, the “MMP-9 activity in wounds (DQ-gelatin)” value ([5]; ND-336 0.1 mg/wound/day) was “significantly decreased”, the “MMP-9 activity in wounds (DQ-gelatin)” value [5, 8] was “inhibition of MMP-9” and the “MMP-8 activity in wounds (DQ-collagen)” value ([6]; ND-336 0.1 mg/wound/day) was “not affected”. The “MMP-8 activity in wounds (DQ-collagen)” value [6, 8] was “presence of MMP-8”, the “Area-under-the-curve (AUC) for IL-6” value (IL-6) was “significantly reduced” and the “IL-6 concentrations in wounds” value (IL-6; days 1, 3, 14) was “significantly reduced”. For the same compound, the “Area-under-the-curve (AUC) for TGF-β1” value (TGF-β1) was “significantly reduced”, the “levels of TGF-β1 in wounds” value (TGF-β1; days 1, 3, 14) was “significantly reduced” and the “VEGF concentrations in the wounds” value (VEGF; compared to vehicle) was “increased”. The “Area-under-the-curve (AUC) for VEGF” value (VEGF; versus vehicle) was “significantly increased” and the “angiogenesis by anti-CD31 antibodies” value (CD31) was “increased angiogenesis”.

With Nc1ccc(Oc2ccc(S(=O)(=O)CC3CS3)cc2)cc1 (centres unmarked) [ND-322] the “Inhibition type, MMP-9” value (MMP-9) was “slow-binding”.

For COC(=O)Nc1ccc(Oc2ccc(S(=O)(=O)CC3CS3)cc2)cc1 (centres unmarked) [ND-380], the “Inhibition type, MMP-8” value (MMP-8) was “non-competitive”, the Ki (MMP-8) was 13 µM and the “Inhibition type, MMP-9” value (MMP-9) was “slow-binding”. For the same compound, the residence time (MMP-9) was 19.6 min.

In the case of O=S(=O)(CC1CS1)c1ccc(Oc2ccc(O)cc2)cc1 (centres unmarked) [p-OH SB-3CT], the “Inhibition type, MMP-8” value (MMP-8) is reported as “non-competitive”, the Ki (MMP-8) is reported as 2.6 µM and the “Inhibition type, MMP-9” value (MMP-9) is reported as “slow-binding”. The Ki (MMP-9) was 160 nM and the residence time (MMP-9) was 24.5 min.
